Results: patent publication US20240158446A1, “CYCLIC COMPOUND HAVING SELECTIVE INHIBITORY ACTION ON KRAS OVER HRAS AND NRAS” (CHUGAI SEIYAKU KABUSHIKI KAISHA, priority 2021, published 2024)
Like-named read-outs stand apart in the source and are kept apart here. Where a SMILES comes first, the peptide text is derived from it. Bridges are numbered along the chain shown (N, C = ends). [ ]: non-standard residue; d: D form. The star is where a group is joined. hPhe(3-Cl-4-CF3) = N[C@@H](CCc1ccc(C(F)(F)F)c(Cl)c1)C(=O)O; NPrPhe(4-CF3) = CCCN[C@@H](Cc1ccc(C(F)(F)F)cc1)C(=O)O; NMeGly(cPent) = CN[C@H](C(=O)O)C1CCCC1; Pro(4,4-F2) = O=C(O)[C@@H]1CC(F)(F)CN1; cisHyp = O=C(O)[C@@H]1C[C@H](O)CN1; Hyp = O=C(O)[C@@H]1C[C@@H](O)CN1; Gly(cBu) = N[C@H](C(=O)O)C1CCC1; NMeD = CN[C@@H](CC(=O)O)C(=O)O; NMeL = CN[C@@H](CC(C)C)C(=O)O; Morpholide = C1CN(*)CCO1; Ac5c = NC1(C(=O)O)CCCC1; NEtG = CCNCC(=O)O; Sar = CNCC(=O)O

Assays:
[1] = target: GDP-bound HRAS wild-type protein (Homo sapiens, UniProt P01112); assay: Binding to HRAS by surface plasmon resonance (SPR), Single Cycle Kinetics
GDP-bound HRAS wild-type protein, sequence (P01112 whole entry): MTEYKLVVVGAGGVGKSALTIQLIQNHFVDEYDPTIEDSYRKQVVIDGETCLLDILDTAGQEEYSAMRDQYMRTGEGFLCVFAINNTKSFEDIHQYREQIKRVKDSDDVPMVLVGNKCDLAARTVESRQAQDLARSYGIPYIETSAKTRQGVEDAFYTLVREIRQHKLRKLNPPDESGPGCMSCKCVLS

[2] = target: GDP-bound KRAS wild-type protein (Homo sapiens, UniProt P01116); assay: Binding to KRAS by surface plasmon resonance (SPR), Single Cycle Kinetics; settings: GDP-bound KRAS wild-type protein, read-out: KRAS KD
GDP-bound KRAS wild-type protein, sequence (P01116 whole entry): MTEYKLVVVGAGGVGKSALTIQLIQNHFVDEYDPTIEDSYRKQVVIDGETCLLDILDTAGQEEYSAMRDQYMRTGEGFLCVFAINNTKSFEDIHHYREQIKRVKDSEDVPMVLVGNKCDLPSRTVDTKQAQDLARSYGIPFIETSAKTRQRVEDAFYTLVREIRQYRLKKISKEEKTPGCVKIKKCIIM

[3] = target: GDP-bound NRAS wild-type protein (Homo sapiens, UniProt P01111); assay: Binding to NRAS by surface plasmon resonance (SPR), Single Cycle Kinetics
GDP-bound NRAS wild-type protein, sequence (P01111 whole entry): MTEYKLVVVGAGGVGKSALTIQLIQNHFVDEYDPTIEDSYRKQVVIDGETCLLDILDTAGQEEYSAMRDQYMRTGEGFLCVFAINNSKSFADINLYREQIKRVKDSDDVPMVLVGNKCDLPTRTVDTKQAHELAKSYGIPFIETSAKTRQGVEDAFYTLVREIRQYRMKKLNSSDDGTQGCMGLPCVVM

[4] = SPR, GDP-bound HRAS wild-type protein vs GDP-bound KRAS wild-type protein
[5] = SPR, GDP-bound NRAS wild-type protein vs GDP-bound KRAS wild-type protein
[6] = SPR Single Cycle Kinetics, 1:1 binding model

Structure (SMILES) | HRAS/KRAS (ratio of KD value for HRAS to KD value for KRAS) [1, 4] | Kd ([2]; SPR, Single Cycle Kinetics) [nM] | NRAS/KRAS (ratio of KD value for NRAS to KD value for KRAS) [3, 5] | Kd [2, 6] [nM] | HRAS/KRAS (ratio of KD value with respect to HRAS to KD value with respect to KRAS) [1, 4] | NRAS/KRAS (ratio of KD value with respect to NRAS to KD value with respect to KRAS) [3, 5] | HRAS/KRAS (ratio of KD value with respect to GDP-bound HRAS wild-type protein to KD value with respect to KRAS) ([1]; SPR KD ratio HRAS/KRAS, class symbols) | NRAS/KRAS (ratio of KD value with respect to GDP-bound NRAS wild-type protein to KD value with respect to KRAS) ([3]; SPR KD ratio NRAS/KRAS, class symbols)
C#CC[C@H]1C(=O)N[C@@H]([C@@H](C)CC)C(=O)N(C)CC(=O)N(C)[C@H]2C/C=C\CCN(C2=O)[C@@H](Cc2ccc(C(F)(F)F)cc2)C(=O)N(C)CC(=O)N[C@@H](CCc2ccc(C(F)(F)F)c(OC)c2)C(=O)N2C[C@H](OCC)C[C@H]2C(=O)NC2(CC(C)(C)C2)C(=O)N(C)[C@@H](C2CCCC2)C(=O)N(C)[C@H](C(=O)N(C)CCC)CC(=O)N1C [PP2053] | A (a compound having 10 or more and less than 20 is denoted as A) | 0.13 | A (a compound having 10 or more and less than 20 is denoted as A) |  |  |  |  | 
CCO[C@@H]1C[C@H]2C(=O)NC3(CC(C)(C)C3)C(=O)N(C)[C@@H](C(CC)CC)C(=O)N(C)[C@H](C(=O)N(C)C)CC(=O)N(C)[C@@H](CC(C)C)C(=O)N[C@@H]([C@@H](C)CC)C(=O)N(C)CC(=O)N(C)[C@H]3C/C=C\CCN(C3=O)[C@@H](Cc3ccc(C)cc3)C(=O)N(C)CC(=O)N[C@@H](CCc3ccc(C(F)(F)F)c(OC)c3)C(=O)N2C1 [PP2168] | A (a compound having 10 or more and less than 20 is denoted as A) | 0.33 | A (a compound having 10 or more and less than 20 is denoted as A) |  |  |  |  | 
CCO[C@@H]1C[C@H]2C(=O)NC3(CCC3)C(=O)N(C)[C@@H](C3CCCC3)C(=O)N(CC)[C@H](C(=O)N3CCOCC3)CC(=O)N(C)[C@@H](CCc3ccccc3)C(=O)N[C@@H]([C@@H](C)CC)C(=O)N(C)CC(=O)N(C)[C@H]3CCCCCN(C3=O)[C@@H](Cc3ccc(C(F)(F)F)cc3)C(=O)N(C)CC(=O)N[C@@H](CCc3cc(F)c(C(F)(F)F)c(F)c3)C(=O)N2C1 [PP0953] | A (a compound having 10 or more and less than 20 is denoted as A) | 27 | A (a compound having 10 or more and less than 20 is denoted as A) |  |  |  |  | 
CCCN1C(=O)CN(C)C(=O)CNC(=O)[C@H]([C@@H](C)CC)NC(=O)[C@H](CC(C)C)N(C)C(=O)C[C@@H](C(=O)N2CCOCC2)NC(=O)[C@H](C2CCCC2)N(C)C(=O)C2(CCCC2)NC(=O)[C@@H]2CC(F)(F)CN2C(=O)[C@H](CCc2ccc(C(F)(F)F)c(Cl)c2)NC(=O)CN(C)C(=O)[C@@H]1Cc1ccc(C(F)(F)F)cc1 [PP0327] ([NMeL]IG[Sar][NPrPhe(4-CF3)][Sar][hPhe(3-Cl-4-CF3)][Pro(4,4-F2)][Ac5c][NMeGly(cPent)]D-Morpholide; lactam N-11) | B (a compound having 3 or more and less than 10 is denoted as B) |  | B (a compound having 3 or more and less than 10 is denoted as B) | 1.9 |  |  |  | 
CCC[C@H]1C(=O)N[C@@H]([C@@H](C)CC)C(=O)N(C)CC(=O)N(C)[C@H]2C/C=C\CCN(C2=O)[C@@H](Cc2ccc(C)cc2)C(=O)N(C)CC(=O)N[C@@H](CCc2ccc(C(F)(F)F)c(Cl)c2)C(=O)N2C[C@H](OCC)C[C@H]2C(=O)NC2(CC(C)(C)C2)C(=O)N(C)[C@@H](C(CC)CC)C(=O)N(C)[C@H](C(=O)N(C)C)CC(=O)N1C [PP2146] | A (a compound having 10 or more and less than 20 is denoted as A) | 0.33 | A (a compound having 10 or more and less than 20 is denoted as A) |  |  |  |  | 
CCCN1C(=O)CN(C)C(=O)CN(CC)C(=O)[C@H](C2CCC2)NC(=O)[C@H](CC(C)C)N(C)C(=O)C[C@@H](C(=O)N2CCOCC2)N(C)C(=O)[C@H](C2CCCC2)N(C)C(=O)C2(CCCC2)NC(=O)[C@@H]2CCCN2C(=O)[C@H](CCc2ccc(C(F)(F)F)c(Cl)c2)NC(=O)CN(C)C(=O)[C@@H]1Cc1ccc(C(F)(F)F)cc1 [PP0292] ([NMeL][Gly(cBu)][NEtG][Sar][NPrPhe(4-CF3)][Sar][hPhe(3-Cl-4-CF3)]P[Ac5c][NMeGly(cPent)][NMeD]-Morpholide; lactam N-11) | C (A compound having a KD ratio of 0.1 or more and less than 3 is denoted as C) |  | B (a compound having 3 or more and less than 10 is denoted as B) | 0.54 |  |  |  | 
CCCN1C(=O)CN(C)C(=O)CNC(=O)[C@H]([C@@H](C)CC)NC(=O)[C@H](CC(C)C)N(C)C(=O)C[C@@H](C(=O)N2CCOCC2)N(C)C(=O)[C@H](C2CCCC2)N(C)C(=O)C2(CCCC2)NC(=O)[C@@H]2C[C@@H](OCC)CN2C(=O)[C@H](CCc2ccc(C(F)(F)F)c(Cl)c2)NC(=O)CN(C)C(=O)[C@@H]1Cc1ccc(C(F)(F)F)cc1 [PP0396] ([NMeL]IG[Sar][NPrPhe(4-CF3)][Sar][hPhe(3-Cl-4-CF3)][Hyp](Et)[Ac5c][NMeGly(cPent)][NMeD]-Morpholide; lactam N-11) | C (A compound having a KD ratio of 0.1 or more and less than 3 is denoted as C) |  | B (a compound having 3 or more and less than 10 is denoted as B) | 0.13 |  |  |  | 
CC[C@H](C)[C@@H]1NC(=O)[C@H](CC(C)C)N(C)C(=O)C[C@@H](C(=O)N2CCOCC2)N(C)C(=O)[C@H](C2CCCC2)N(C)C(=O)C2(CCC2)NC(=O)[C@@H]2[C@H](OC)CCN2C(=O)[C@H](CCc2cc(F)c(C(F)(F)F)c(F)c2)NC(=O)CN(C)C(=O)[C@H](Cc2ccc(C(F)(F)F)cc2)N2CCCCC[C@@H](C2=O)N(C)C(=O)CN(C)C1=O [PP1085] | A (a compound having 10 or more and less than 20 is denoted as A) | 0.95 | A (a compound having 10 or more and less than 20 is denoted as A) |  |  |  |  | 
CCO[C@@H]1C[C@H]2C(=O)N(C)C3(CC(C)(C)C3)C(=O)N(C)[C@@H](C3CCCC3)C(=O)N(C)[C@H](C(=O)N(C)C)CC(=O)N(C)[C@H]3CCC/C=C/c4ccc(cc4)C[C@@H](C(=O)N(C)CC(=O)N[C@@H](CCc4cc(F)c(C(F)(F)F)c(F)c4)C(=O)N2C1)N1CC/C=C\C[C@@H](C1=O)N(C)C(=O)CN(C)C(=O)[C@H]([C@@H](C)CC)NC3=O [PP3060] | B (a compound having 3 or more and less than 10 is denoted as B) | 0.042 | B (a compound having 3 or more and less than 10 is denoted as B) |  |  |  |  | 
CCO[C@@H]1C[C@H]2C(=O)NC3(CCC3)C(=O)N(C)[C@@H](C3CCCC3)C(=O)N(C)[C@H](C(=O)N3CCOCC3)CC(=O)N(C)[C@@H](CC3CC3)C(=O)N[C@@H]([C@@H](C)CC)C(=O)N(C)CC(=O)N(C)[C@H]3CCCCN(C3=O)[C@@H](Cc3ccc(C(F)(F)F)cc3)C(=O)N(C)CC(=O)N[C@@H](CCc3cc(F)c(C(F)(F)F)c(F)c3)C(=O)N2C1 [PP0712] |  |  |  | 0.042 | C (A compound having a KD ratio of 0.1 or more and less than 3 is denoted as C) | C (A compound having a KD ratio of 0.1 or more and less than 3 is denoted as C) |  | 
CCO[C@@H]1C[C@H]2C(=O)NC3(CC(C)(C)C3)C(=O)N(C)[C@@H](C(CC)CC)C(=O)N(C)[C@H](C(=O)N(C)C)CC(=O)N(C)[C@@H](CC(C)C)C(=O)N[C@@H]([C@@H](C)CC)C(=O)N(C)CC(=O)N(C)[C@H]3C/C=C\CCN(C3=O)[C@@H](Cc3ccc(C)cc3)C(=O)N(C)CC(=O)N[C@@H](CCc3ccc(Cl)c(Cl)c3)C(=O)N2C1 [PP2185] | A (a compound having 10 or more and less than 20 is denoted as A) | 0.71 | AA (a compound having 20 or more is denoted as AA) |  |  |  |  | 
CCO[C@@H]1C[C@H]2C(=O)NC3(CC(C)(C)C3)C(=O)N(C)[C@@H](C3CCCC3)C(=O)N(C)[C@H](C(=O)N3CCCC3)CC(=O)N(C)[C@H]3CCCC/C=C/c4ccc(cc4)C[C@@H](C(=O)N(C)CC(=O)N[C@@H](CCc4ccc(Cl)c(Cl)c4)C(=O)N2C1)N1CC/C=C\C[C@@H](C1=O)N(C)C(=O)CN(C)C(=O)[C@H]([C@@H](C)CC)NC3=O [PP2593] |  |  |  | 0.15 |  |  | A (a compound having 10 or more and less than 20 is denoted as A) | A (a compound having 10 or more and less than 20 is denoted as A)
CCCN1C(=O)CN(C)C(=O)CN(C)C(=O)[C@H]([C@@H](C)CC)NC(=O)[C@H](CC(C)C)N(C)C(=O)C[C@@H](C(=O)N2CCOCC2)N(C)C(=O)[C@H](C2CCCC2)N(C)C(=O)C2(CCCC2)NC(=O)[C@@H]2C[C@H](OCC)CN2C(=O)[C@H](CCc2ccc(C(F)(F)F)c(Cl)c2)NC(=O)CN(C)C(=O)[C@@H]1Cc1ccc(C(F)(F)F)cc1 [PP0243] ([NMeL]I[Sar][Sar][NPrPhe(4-CF3)][Sar][hPhe(3-Cl-4-CF3)][cisHyp](Et)[Ac5c][NMeGly(cPent)][NMeD]-Morpholide; lactam N-11) | C (A compound having a KD ratio of 0.1 or more and less than 3 is denoted as C) |  | B (a compound having 3 or more and less than 10 is denoted as B) | 0.31 |  |  |  | 
